Laboratory results: patent US20260125357A1, “LACTATE ENHANCING COMPOUNDS AND USES THEREOF” (GLIAPHARM SA, priority 2022, published 2026)

System: mice injected with streptozotocin
Assay: Inhibitory Avoidance in streptozotocin ICV injection model of Alzheimer's disease
Assay type: in vivo, mouse
Settings: 1 day after training, vs Veh
Experimental: Craniotomies are performed on isoflurane-anesthetized mice for injections of Veh or streptozotocin in cerebral ventricles (coordinates: −0.5 mm (to bregma), lateral+/−1.0 mm (to midline), ventral −2.2 mm (to dura)) (Kelliny S. et al., Molecular Neurobiology, 2021). A solution composed of Veh (0.9% NaCl) or streptozotocin (5 mg/kg) prepared in 1 μl artificial cerebrospinal fluid solution (aCSF, 20 mM citrate buffer, pH 4.2) is injected in both cerebral ventricles using Hamilton micro syringe at a constant speed of 100-200 nl/min. After injection, skin of the skull is sutured, and mice is monitored closely and receives analgesic treatment for at least 4 days. After mice had fully recovered from surgery, memory tests including Morris Water Maze (MWM), Inhibitory Avoidance (IA) and Novel Object Recognition (NOR), as described below, are performed. […]
Inhibitory avoidance (IA) test is a well-established memory paradigm in rodents that measures contextual memory associated with a mild electrical footshock in a specific context (the dark compartment of the IA chamber). […] Memory retention was measured at 24 h after training by placing the mouse back into the lit compartment and recording its latency (in seconds) to enter the dark compartment. […]

COc1cc2ccnc(Nc3ccc(S(C)(=O)=O)cc3)c2cc1OC [Compound 2, 6,7-dimethoxy-N-(4-methylsulfonylphenyl)isoquinolin-1-amine]
memory in the Inhibitory Avoidance (10 mg/kg): significantly higher | memory in the Inhibitory Avoidance (30 mg/kg): significantly higher
